Active and inactive are the calls of the source. The calls are words filed in the database; no cut-off is given here.
What was measured:
Liver [1] = assay: Increase in oxygen consumption rate of mitochondrial state 4 respiration in ICR mouse liver fraction at 20 uM by Clark-type oxygen electrode assay; type: functional
Liver [2] = assay: Toxicity in ICR mouse liver fraction assessed as ROS production at 1 to 20 uM by Clark-type oxygen electrode assay; type: tissue-based
Liver [3] = assay: Increase in oxygen consumption rate of mitochondrial state 3 respiration in ICR mouse liver fraction at 20 uM by Clark-type oxygen electrode assay; type: functional
Mus musculus [4] = assay: Antiobesity activity in ICR mouse assessed as body weight reduction at 0.4 to 0.8 mg/kg/week, ip for 6 weeks measured after 6 weeks relative to control; type: functional; parameters: scale not given: the % may be the effect or the level left; conditions: route intraperitoneal
Liver [5] = assay: Increase in oxygen consumption rate of mitochondrial state 4 respiration in ICR mouse liver fraction at 10 uM by Clark-type oxygen electrode assay; type: functional
Mus musculus [6] = assay: Toxicity in ICR mouse assessed as lesions in liver at 0.4 to 0.8 mg/kg/week, ip for 6 weeks measured after 6 weeks relative to control; type: organism-based; parameters: route intraperitoneal; conditions: in vivo, 1008 h
Mus musculus [7] = assay: Toxicity in ICR mouse assessed as lesions in kidney at 0.4 to 0.8 mg/kg/week, ip for 6 weeks measured after 6 weeks relative to control; type: organism-based; parameters: route intraperitoneal; conditions: in vivo, 1008 h

Compound	Activity (Liver [1])	also measured
COc1cc(C(=O)OCC=C(C)C)nc2c(OC3CCCC3)cccc12	inactive	–
COc1cc(C(=O)NCC=C(C)C)nc2c(OCC=C(C)C)cccc12	inactive	–
COc1cc(C(=O)OCC=C(C)C)nc2c(OC/C=C(\C)CCC=C(C)C)cccc12	inactive	–
COc1cc(C(=O)OCC=C(C)C)nc2c(OCCC(C)C)cccc12	inactive	–
COc1cc(C(=O)OCCC(C)C)nc2c(OCC=C(C)C)cccc12	inactive	–
COc1cc(C(=O)OC2CCCC2)nc2c(OCC=C(C)C)cccc12	inactive	–
CCCCCOc1cc(C(=O)OCC=C(C)C)nc2c(OCC=C(C)C)cccc12	Active	–
COc1cc(C(=O)OCC=C(C)C)nc2c(OC)cccc12	inactive	–
COC(=O)c1cc(OC)c2cccc(OCC=C(C)C)c2n1	inactive	–
COc1cc(C(=O)OC/C=C(\C)CCC=C(C)C)nc2c(OCC=C(C)C)cccc12	inactive	–
COc1cc(C(=O)OCC=C(C)C)nc2c(OCC=C(C)C)cccc12	Active	Activity (Liver [2]): Non-toxic; Activity (Liver [3]): inactive
CC(C)=CCOC(=O)c1cc(OCC=C(C)C)c2cccc(OCC=C(C)C)c2n1	Active	Activity (Mus musculus [4]): 6%; Activity (Liver [5]): Active; Activity (Mus musculus [6]): Non-toxic; Activity (Liver [2]): Non-toxic; Activity (Mus musculus [7]): Non-toxic; Activity (Liver [3]): inactive
